row,SMILES,melting point [°C]
1,"CCCCc1oc(-c2ccc(C(F)(F)F)cc2)cc1CCC(=O)Nc1cccc(CSCC(=O)O)c1 [Example 2(5), ({3-[(3-{2-Butyl-5-[4-(trifluoromethyl)phenyl]-3-furyl}propionyl)amino)benzyl}thio) acetic acid]",137 to 138
2,"Cc1cc(OCc2cc(-c3ccc(C(F)(F)F)cc3)oc2C)ccc1CC(=O)O [Example 6(3), [2-Methyl-4-({2-methyl-5-[4-(trifluoromethyl)phenyl]-3-furyl}methoxy)phenyl]acetic acid]",147 to 149
3,"CCc1oc(-c2ccc(C(F)(F)F)cc2)cc1CCCOc1cccc(CC(=O)O)c1C [Example 6(50), [3-(3-{2-Ethyl-5-[4-(trifluoromethyl)phenyl]-3-furyl}propoxy)-2-methylphenyl]acetic acid]",109 to 110
4,"Cc1oc(-c2ccc(F)cc2)cc1C(=O)N(C)c1cccc(CSCC(=O)O)c1 [Example 1(1), [(3{[5-(4-Fluorophenyl)-2-methyl-3-furoyl](methyl)amino}benzyl)thio]acetic acid]",155 to 156
5,"Cc1oc(-c2ccc(C(F)(F)F)cc2)cc1COc1ccc(CC(=O)O)cc1 [Example 6(9), [4-({2-Methyl-5-[4-(trifluoromethyl)phenyl]-3-furyl}methoxy)phenyl]acetic acid]",147 to 149
6,Cc1oc(-c2ccc(OC(F)(F)F)cc2)cc1C(=O)Nc1cccc(CSCC(=O)O)c1 [Example 4(2)],200 to 202

# Other lines, results leading:
row,melting point [°C],SMILES
1,95 to 96,"Cc1oc(-c2ccc(C(F)(F)F)cc2)cc1COc1cccc(COC(C)(C)C(=O)O)c1 [Example 6(70), 2-Methyl-2-{[3-({2-methyl-5-[4-(trifluoromethyl)phenyl]-3-furyl}methoxy)benzyl]oxy}propionic acid]"
2,81 to 82,"Cc1oc(-c2cccc(C(F)(F)F)c2)cc1COc1cccc(CSC(C)(C)C(=O)O)c1 [Example 6(59), 2-Methyl-2-{[3-({2-methyl-5-[3-(trifluoromethyl)phenyl]-3-furyl}methoxy)benzyl]thio}propionic acid]"
3,84 to 85,"CCOC(=O)C(C)(C)Oc1ccc(/C=C\c2cc(-c3ccc(C(F)(F)F)cc3)oc2C)cc1 [Example 21-b, Ethyl 2-methyl-2-[4-((Z)-2-{2-methyl-5-[4-(trifluoromethyl)phenyl]-3-furyl}ethenyl)phenoxy]propionate]"
4,116 to 117,"Cc1cc(-c2ccc(C(F)(F)F)cc2)oc1COc1ccc(OC(C)(C)C(=O)O)cc1 [Example 20(2), 2-Methyl-2-[4-({3-methyl-5-[4-(trifluoromethyl)phenyl]-2-furyl}methoxy)phenoxy]propionic acid]"
5,162 to 163,"Cc1nc(CCCc2cc(-c3ccc(C(F)(F)F)cc3)oc2C)sc1CC(=O)O [Example 13(4), [4-Methyl-2-(3-{2-methyl-5-[4-(trifluoromethyl)phenyl]-3-furyl}propyl)-1,3-thiazol-5-yl]acetic acid]"
6,126 to 128,"Cc1oc(-c2ccc(C(F)(F)F)cc2)cc1CCc1nc(C(C)C)c(CC(=O)O)o1 [Example 13(7), [4-Isopropyl-2-(2-{2-methyl-5-[4-(trifluoromethyl)phenyl]-3-furyl}ethyl)-1,3-oxazol-5-yl]acetic acid]"
7,115 to 116,"Cc1oc(-c2ccccc2C(F)(F)F)cc1COc1ccc(SC(C)(C)C(=O)O)cc1 [Example 6(117), 2-Methyl-2-{[4-({2-methyl-5-[2-(trifluoromethyl)phenyl]-3-furyl}methoxy)phenyl]thio}propionic acid]"
8,92 to 93,"Cc1oc(-c2ccc(C(F)(F)F)cc2)cc1COc1ccc(OC(C)(C)C(=O)O)c(Cl)c1 [Example 6(92), 2-[2-Chloro-4-({2-methyl-5-[4-(trifluoromethyl)phenyl]-3-furyl}methoxy)phenoxy]-2-methylpropionic acid]"
